According to patent US20240246977A1, “DEGRADATION OF BRUTON'S TYROSINE KINASE (BTK) BY CONJUGATION OF BTK INHIBITORS WITH E3 LIGASE LIGAND AND METHOD OF USE” (BeiGene Switzerland GmbH, priority 2021, published 2024):

How the values were obtained:
HEK-293 cells = assay: HEK-293 cytotoxicity detection (CellTiter-Glo); format: cell-based; conditions: Homo sapiens, 72 h, 72 h incubation, CellTiter-Glo luminescence, read-out: HEK293
How it was run: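 HEK-293 cells exposed 72 h to 8 compounds doses (4-fold dilutions, top stock 5 mM at 500×) in 0.2% DMSO. Viability by CellTiter-Glo luminescence; inhibition normalised to DMSO high control and low control, IC50 from four-parameter curve fit.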

BTK = BTK (Homo sapiens, UniProt Q06187); assay: BTK cell degradation in TMD-8 cells, HTRF assay; format: cell-based; parameters: endogenous in cells; host or cells: TMD-8 cells; conditions: 6 h treatment, IC50 (DC50) of BTK degradation
Chain of BTK (Q06187 whole entry): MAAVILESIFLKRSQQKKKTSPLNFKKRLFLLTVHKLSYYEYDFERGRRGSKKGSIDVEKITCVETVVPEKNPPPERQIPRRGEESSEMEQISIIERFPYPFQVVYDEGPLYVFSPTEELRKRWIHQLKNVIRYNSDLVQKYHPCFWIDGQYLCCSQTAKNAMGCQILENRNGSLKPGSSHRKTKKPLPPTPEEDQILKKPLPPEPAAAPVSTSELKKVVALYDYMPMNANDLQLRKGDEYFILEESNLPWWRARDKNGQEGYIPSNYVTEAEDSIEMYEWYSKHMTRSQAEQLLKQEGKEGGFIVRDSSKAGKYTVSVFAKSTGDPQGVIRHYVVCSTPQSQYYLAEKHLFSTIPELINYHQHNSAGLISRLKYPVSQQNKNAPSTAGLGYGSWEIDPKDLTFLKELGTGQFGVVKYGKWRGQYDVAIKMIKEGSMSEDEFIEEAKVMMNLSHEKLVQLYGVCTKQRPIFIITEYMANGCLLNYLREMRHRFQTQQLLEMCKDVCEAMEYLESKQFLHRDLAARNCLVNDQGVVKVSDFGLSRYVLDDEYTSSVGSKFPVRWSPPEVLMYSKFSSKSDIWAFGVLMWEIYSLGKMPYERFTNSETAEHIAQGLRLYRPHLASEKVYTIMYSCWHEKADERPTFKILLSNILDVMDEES
How it was run: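 BTK levels read by HTRF in lysates of TMD-8 cells exposed to compounds for 6 h, eight concentrations at 6-fold steps in 0.2% DMSO. Percent degradation versus DMSO and low controls was fitted with a four-parameter equation to give DC50; Dmax is maximal degradation.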

Compound | DC50 (BTK) | IC50 (HEK-293 cells)
NC(=O)c1c(-c2ccc(C(=O)Nc3ccc(C(F)(F)F)cn3)cc2)nn2c1Nc1ccc(N3CCN(CC4CCN(c5ccc(N6CCC(=O)NC6=O)cc5)CC4)CC3)cc1CC2 [Example B17, 7-(4-((1-(4-(2,4-dioxotetrahydropyrimidin-1(2H)-yl)phenyl)piperidin-4-yl)methyl)piperazin-1-yl)-2-(4-((5-(trifluoromethyl)pyridin-2-yl)carbamoyl)phenyl)-9,10-dihydro-4H-benzo[d]pyrazolo[1,5-a][1,3]diazepine-3-carboxamide] | 2.19 nM | > 10000 nM
NC(=O)c1c(-c2ccc(C(=O)Nc3cc(C(F)(F)F)ccn3)cc2Cl)nn2c1Nc1ccc(N3CCN(CC4CCN(c5ccc(N6CCC(=O)NC6=O)cc5)CC4)CC3)cc1CC2 [Example B24, 2-(2-chloro-4-((4-(trifluoromethyl)pyridin-2-yl)carbamoyl)phenyl)-7-(4-((1-(4-(2,4-dioxotetrahydropyrimidin-1(2H)-yl)phenyl)piperidin-4-yl)methyl)piperazin-1-yl)-9,10-dihydro-4-benzo[d]pyrazolo[1,5-a][1,3]diazepine-3-carboxamide] | 1.51 nM | > 10000 nM
NC(=O)c1c(-c2ccc(C(=O)Nc3cc(C(F)(F)F)ccn3)c(Cl)c2)nn2c1Nc1ccc(N3CCN(CC4CCN(c5ccc(N6CCC(=O)NC6=O)cc5)CC4)CC3)cc1CC2 [Example B26, 2-(3-chloro-4-((4-(trifluoromethyl)pyridin-2-yl)carbamoyl)phenyl)-7-(4-((1-(4-(2,4-dioxotetrahydropyrimidin-1(2H)-yl)phenyl)piperidin-4-yl)methyl)piperazin-1-yl)-9,10-dihydro-4H-benzo[d]pyrazolo[1,5-a][1,3]diazepine-3-carboxamide] | 0.928 nM | > 10000 nM
COc1cc(C(=O)Nc2cc(C(F)(F)F)ccn2)ccc1-c1nn2c(c1C(N)=O)Nc1ccc(N3CCN(CC4CCN(c5ccc(N6CCC(=O)NC6=O)cc5)CC4)CC3)cc1CC2 [Example B27, 7-(4-((1-(4-(2,4-dioxotetrahydropyrimidin-1(2H)-yl)phenyl)piperidin-4-yl)methyl)piperazin-1-yl)-2-(2-methoxy-4-((4-(trifluoromethyl)pyridin-2-yl)carbamoyl)phenyl)-9,10-dihydro-4H-benzo[d]pyrazolo[1,5-a][1,3]diazepine-3-carboxamide] | 0.849 nM | > 10000 nM
Cc1cccc(NC(=O)c2ccc(-c3nn4c(c3C(N)=O)Nc3ccc(N5CCN(CC6CCN(c7ccc(N8CCC(=O)NC8=O)cc7)CC6)CC5)cc3CC4)c(F)c2C)n1 [Example B28, 7-(4-((1-(4-(2,4-dioxotetrahydropyrimidin-1(2H)-yl)phenyl)piperidin-4-yl)methyl)piperazin-1-yl)-2-(2-fluoro-3-methyl-4-((6-methylpyridin-2-yl)carbamoyl)phenyl)-9,10-dihydro-4H-benzo[d]pyrazolo[1,5-a][1,3]diazepine-3-carboxamide] | 0.726 nM | > 10000 nM
Cc1cc(C(F)(F)F)cc(NC(=O)c2ccc(-c3nn4c(c3C(N)=O)Nc3ccc(N5CCN(CC6CCN(c7ccc(N8CCC(=O)NC8=O)cc7)CC6)CC5)cc3CC4)c(F)c2C)n1 [Example B29, 7-(4-((1-(4-(2,4-dioxotetrahydropyrimidin-1(2H)-yl)phenyl)piperidin-4-yl)methyl)piperazin-1-yl)-2-(2-fluoro-3-methyl-4-((6-methyl-4-(trifluoromethyl)pyridin-2-yl)carbamoyl)phenyl)-9,10-dihydro-4H-benzo[d]pyrazolo[1,5-a][1,3]diazepine-3-carboxamide] | 2.44 nM | > 10000 nM
Cc1cccc(NC(=O)c2cc(F)c(-c3nn4c(c3C(N)=O)Nc3ccc(N5CCN(CC6CCN(c7ccc(N8CCC(=O)NC8=O)cc7)CC6)CC5)cc3CC4)cc2C)n1 [Example B30, 7-(4-((1-(4-(2,4-dioxotetrahydropyrimidin-1(2H)-yl)phenyl)piperidin-4-yl)methyl)piperazin-1-yl)-2-(2-fluoro-5-methyl-4-((6-methylpyridin-2-yl)carbamoyl)phenyl)-9,10-dihydro-4H-benzo[d]pyrazolo[1,5-a][1,3]diazepine-3-carboxamide] | 2.53 nM | > 10000 nM
Cc1cccc(NC(=O)c2ncc(-c3nn4c(c3C#N)Nc3ccc(N5CCN(CC6CCN(c7ccc(N8CCC(=O)NC8=O)cc7)CC6)CC5)cc3CC4)cc2C)n1 [Example B31, 5-(3-cyano-7-(4-((1-(4-(2,4-dioxotetrahydropyrimidin-1(2H)-yl)phenyl)piperidin-4-yl)methyl)piperazin-1-yl)-9,10-dihydro-4H-benzo[d]pyrazolo[1,5-a][1,3]diazepin-2-yl)-3-methyl-N-(6-methylpyridin-2-yl)picolinamide] | > 2000 nM | 133 nM
Cc1cccc(NC(=O)c2ncc(-c3nn4c(c3C(N)=O)Nc3ccc(N5CCN(CC6CCN(c7ccc(N8CCC(=O)NC8=O)cc7)CC6)CC5)cc3CC4)cc2C)n1 [Example B32, 7-(4-((1-(4-(2,4-dioxotetrahydropyrimidin-1(2H)-yl)phenyl)piperidin-4-yl)methyl)piperazin-1-yl)-2-(5-methyl-6-((6-methylpyridin-2-yl)carbamoyl)pyridin-3-yl)-9,10-dihydro-4H-benzo[d]pyrazolo[1,5-a][1,3]diazepine-3-carboxamide] | 8.86 nM | 332 nM
Cc1cccc(NC(=O)c2ncc(-c3nn4c(c3C(N)=O)Nc3ccc(N5CCN(CCc6cc(F)c(C7CCC(=O)NC7=O)c(F)c6)CC5)cc3CC4)cc2C)n1 (stereo not shown) [Example B33, 7-(4-(4-(2,6-dioxopiperidin-3-yl)-3,5-difluorophenethyl)piperazin-1-yl)-2-(5-methyl-6-((6-methylpyridin-2-yl)carbamoyl)pyridin-3-yl)-9,10-dihydro-4H-benzo[d]pyrazolo[1,5-a][1,3]diazepine-3-carboxamide] | 17.6 nM | 400 nM

Stronger by DC50 (BTK), values ahead:

DC50 (BTK) | Compound | IC50 (HEK-293 cells)
0.378 nM | NC(=O)c1c(-c2ccc(C(=O)Nc3cc(C(F)F)ccn3)cc2)nn2c1Nc1ccc(N3CCN(CC4CCN(c5ccc(N6CCC(=O)NC6=O)cc5)CC4)CC3)cc1CC2 [Example B18, 2-(4-((4-(difluoromethyl)pyridin-2-yl)carbamoyl)phenyl)-7-(4-((1-(4-(2,4-dioxotetrahydropyrimidin-1(2H)-yl)phenyl)piperidin-4-yl)methyl)piperazin-1-yl)-9,10-dihydro-4H-benzo[d]pyrazolo[1,5-a][1,3]diazepine-3-carboxamide] | > 10000 nM
0.284 nM | Cc1cccc(NC(=O)c2ccc(-c3nn4c(c3C(N)=O)Nc3ccc(N5CCN(CC6CCN(c7ccc(N8CCC(=O)NC8=O)cc7)CC6)CC5)cc3CC4)cc2)n1 [Example B19, 7-(4-((1-(4-(2,4-dioxotetrahydropyrimidin-1(2H)-yl)phenyl)piperidin-4-yl)methyl)piperazin-1-yl)-2-(4-((6-methylpyridin-2-yl)carbamoyl)phenyl)-9,10-dihydro-4H-benzo[d]pyrazolo[1,5-a][1,3]diazepine-3-carboxamide] | > 10000 nM
0.469 nM | Cc1cccc(NC(=O)c2ccc(-c3nn4c(c3C(N)=O)Nc3ccc(N5CCN(CC6CCN(c7ccc(N8CCC(=O)NC8=O)cc7)CC6)CC5)cc3CC4)c(Cl)c2)n1 [Example B20, 2-(2-chloro-4-((6-methylpyridin-2-yl)carbamoyl)phenyl)-7-(4-((1-(4-(2,4-dioxotetrahydropyrimidin-1(2H)-yl)phenyl)piperidin-4-yl)methyl)piperazin-1-yl)-9,10-dihydro-4H-benzo[d]pyrazolo[1,5-a][1,3]diazepine-3-carboxamide] | > 10000 nM
0.602 nM | Cc1cccc(NC(=O)c2ccc(-c3nn4c(c3C(N)=O)Nc3ccc(N5CCN(CC6CCN(c7ccc(N8CCC(=O)NC8=O)cc7)CC6)CC5)cc3CC4)cc2C)n1 [Example B21, 7-(4-((1-(4-(2,4-dioxotetrahydropyrimidin-1(2H)-yl)phenyl)piperidin-4-yl)methyl)piperazin-1-yl)-2-(3-methyl-4-((6-methylpyridin-2-yl)carbamoyl)phenyl)-9,10-dihydro-4H-benzo[d]pyrazolo[1,5-a][1,3]diazepine-3-carboxamide] | > 10000 nM
0.338 nM | COc1cc(C(=O)Nc2cccc(C)n2)ccc1-c1nn2c(c1C(N)=O)Nc1ccc(N3CCN(CC4CCN(c5ccc(N6CCC(=O)NC6=O)cc5)CC4)CC3)cc1CC2 [Example B22, 7-(4-((1-(4-(2,4-dioxotetrahydropyrimidin-1(2H)-yl)phenyl)piperidin-4-yl)methyl)piperazin-1-yl)-2-(2-methoxy-4-((6-methylpyridin-2-yl)carbamoyl)phenyl)-9,10-dihydro-4H-benzo[d]pyrazolo[1,5-a][1,3]diazepine-3-carboxamide] | > 10000 nM
0.594 nM | Cc1cc(C)nc(NC(=O)c2ccc(-c3nn4c(c3C(N)=O)Nc3ccc(N5CCN(CC6CCN(c7ccc(N8CCC(=O)NC8=O)cc7)CC6)CC5)cc3CC4)cc2C)c1 [Example B23, 2-(4-((4,6-dimethylpyridin-2-yl)carbamoyl)-3-methylphenyl)-7-(4-((1-(4-(2,4-dioxotetrahydropyrimidin-1(2H1)-yl)phenyl)piperidin-4-yl)methyl)piperazin-1-yl)-9,10-dihydro-4H-benzo[d]pyrazolo[1,5a][1,3]diazepine-3-carboxamide] | > 10000 nM
0.415 nM | Cc1cccc(NC(=O)c2ccc(-c3nn4c(c3C(N)=O)Nc3ccc(N5CCN(CC6CCN(c7ccc(N8CCC(=O)NC8=O)cc7)CC6)CC5)cc3CC4)cc2Cl)n1 [Example B25, 2-(3-chloro-4-((6-methylpyridin-2-yl)carbamoyl)phenyl)-7-(4-((1-(4-(2,4-dioxotetrahydropyrimidin-1(2H)-yl)phenyl)piperidin-4-yl)methyl)piperazin-1-yl)-9,10-dihydro-4H-benzo[d]pyrazolo[1,5-a][1,3]diazepine-3-carboxamide] | > 10000 nM
